A word on the EC50: it is the midpoint of the concentration-response curve.

Molecules are shown by their SMILES.

From US20230355599A1, “BIOMARKERS FOR CBL, AND COMPOSITIONS AND METHODS FOR THEIR USE” (NURIX THERAPEUTICS, INC., priority 2022, published 2023) come the findings set out here.

Holding throughout (type): cell-based
One assay relates to phosphorylated ZAP70. Briefly: Phosphorylated ZAP70 in cynomolgus macaque CD8+ T cells from whole blood in vitro (flow cytometry). To be noted: Macaca fascicularis, T-cell, whole blood from six cynomolgus macaques, 2 hrs 37° C., 2 μg/mL anti-CD3 & anti-CD28 + crosslinker 60 minutes, read-out: Average mean EC50±standard deviation, phosphorylated ZAP70. The procedure:
(§1) To assess these candidate clinical proximal biomarkers of Cbl-b inhibition on T cells, pharmacodynamic analysis was performed. Whole blood was obtained from cynomolgus macaque donors, then incubated with increasing concentrations of Compound 23. The response to Cbl-b inhibition on phosphorylated HS1, ZAP70 and PLCγ2 was measured in CD8^+ T cells using flow cytometry. This technique is highly quantitative and can measure multiple phosphorylation markers in different cell populations within the same sample.
(§2) DMSO (Dimethyl sulfoxide) was used to reconstitute Compound 23. Final concentration of DMSO was 0.05% in media for in vitro assays. […]
(§3) Stained cells were run on an Attune NxT Acoustic Focusing Flow Cytometer (Thermo Fisher, cat. No. A29004), and data was analyzed using FlowJo (v10.6.1) and GraphPad Prism (v8.00) software. Single lymphocytes were gated for CD8^+ cells (CD45^+/CD8^+) cells, and population frequencies were calculated for each population. The data is quantified by the percent positive. […] As protein becomes phosphorylated the fluorescence increases resulting in a larger fraction of the cells entering that gate. Each population was evaluated for % positive pY759-PLCγ2, pY397-HS1 levels, pY319/Syk (Y352)-ZAP70 levels.
In general terms: Flow cytometry measures light scatter and fluorescence of single cells or particles in a stream.

The test system of another assay is pY180/pY511-ITK. Briefly: Phosphoprotein screen in human whole blood with CBL inhibitor at 10 uM: ITK. To be noted: 1 hr 37° C., human whole blood 8 donors, anti-CD3/CD28 + crosslinker 60 minutes. As to the method: (§4) To identify proximal biomarkers of CBL-B inhibition in immune cells, a panel of phosphorylated proteins were screened in human whole blood incubated with CBL-B inhibitor and concomitant anti-CD3 and anti-CD28 antibodies. The effect of CBL-B inhibition was assessed across multiple cellular signaling networks.
(§5) Human heparinized whole blood from 8 donors was received after an overnight shipment at 4° C. The blood was plated, treated with CBL inhibitor at 10 uM and incubated at 37° C. for 60 minutes. After incubation, the cells were stimulated with anti-CD3/CD28 followed by a cross-linking antibody (30 μg of goat anti-mouse IgG (H+L) antibody (Invitrogen)). After 60 minutes, the cells were fixed, and stained using surface markers for T cells (CD3^+CD4^+& CD3^+CD8^+) and analyzed by flow cytometry for target phosphorylation of the following markers: pY180/pY511-ITK, pY397-HS1, pY759-PLCg2, pY783-PLCg1, pY525/pY526/pY348-SYK & pY319-Zap70.
(§6) Fold change of each biomarker was calculated with the following example equation: […]
(§7) Whole blood from eight human donors was collected in sodium heparin anti-coagulant treated with 10 μM of Compound 23 for 1 hr at 37° C. […] Fold change of % phosphorylation normalized to DMSO was quantitated in T cells (CD8^+) using flow cytometry is provided in FIGS. 6A-6B.

The next assay concerns pY397-HS1. Put plainly: Phosphoprotein screen in human whole blood with CBL inhibitor at 10 uM: HS1. As to conditions: 1 hr 37° C., human whole blood 8 donors, anti-CD3/CD28 + crosslinker 60 minutes. The procedure:
as §4, §5, §6, §7

The test system of another assay is phosphorylated HS1. Briefly: Phosphorylated HS1 in cynomolgus macaque CD8+ T cells from whole blood in vitro (flow cytometry). As to conditions: Macaca fascicularis, T-cell, whole blood from six cynomolgus macaques, 2 hrs 37° C., 2 μg/mL anti-CD3 & anti-CD28 + crosslinker 60 minutes, read-out: Average mean EC50±standard deviation, phosphorylated HS1. As to the method:
as §1, §2, §3

Consider `C[C@H]1CCCN(Cc2cc3c(c(C(F)(F)F)c2)CN(c2cccc([C@]4(c5nncn5C)C[C@@H](C)C4)c2)C3=O)C1` [Compound 23], for which the EC50 turned out to be 173 ± 177 nM with phosphorylated ZAP70 and 230 ± 150 nM in the assay with phosphorylated HS1. Besides, the “increased phosphorylation of ITK compared to DMSO control” value in the assay with pY180/pY511-ITK is reported as 3-4 fold. Also, the “increased phosphorylation of HS1 compared to DMSO control” value with pY397-HS1 is recorded as 3-4 fold.
